Reference: patent US20230085307A1, “PYRIDAZINONE COMPOUND AND HERBICIDE” (NISSAN CHEMICAL CORPORATION, priority 2019, published 2023)

Tests used:
barnyard grass [1] = assay: Test Example 5: herbicidal effect by foliage application, plastic box (Table 20, symbol H); assay type: in vivo, barnyard grass (Echinochloa crus-galli); conditions: foliage application after 14-day growth, evaluated three weeks after application; for herbicidal effect on H: barnyard grass (evaluation grade 0-5): 320 g/ha
Outline: (§1)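 Post-emergence foliar test in sterilized diluvial soil. Compound applied as water-diluted emulsion at a predetermined rate to 14-day-old plants; evaluation at three weeks.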

barnyard grass [2] = assay: Test Example 3: herbicidal effect by foliage application, Wagner pot (Table 18, symbol H); assay type: in vivo, barnyard grass (Echinochloa crus-galli); conditions: 320 g/ha
Outline: (§2)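 Plants were sown in alluvial soil held under 0.1–0.5 cm standing water and grown 14 days in a greenhouse at 25–30 °C. An emulsifiable formulation, water-diluted to the set dose, was then sprayed onto the foliage, and effects were scored three weeks later using previously defined criteria.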

Japanese bulrush [3] = assay: Test Example 2: herbicidal activity, application during weed generation under submerged conditions (Table 17, symbol B); assay type: in vivo, Japanese bulrush (Schoenoplectus juncoides); conditions: AAH 320 g/ha; application during weed generation, submerged conditions
Outline: (§3)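 Herbicide emulsion, diluted with water to the chosen amount, is applied onto 4 cm floodwater over alluvial soil where the weeds were co-sown and raised at 25–30° C. Application timing: 1–2 leaves. Assessment: three weeks afterwards.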

late watergrass [4] = assay: Test Example 2: herbicidal activity, application during weed generation under submerged conditions (Table 17, symbol A); assay type: in vivo, late watergrass (Echinochloa oryzicola); conditions: AAH 320 g/ha; application during weed generation, submerged conditions
Outline: as §3

blackgrass = assay: Test Example 5: herbicidal effect by foliage application, plastic box (Table 20, symbol J); assay type: in vivo, blackgrass (Alopecurus myosuroides); conditions: foliage application after 14-day growth, evaluated three weeks after application; for herbicidal effect on J: blackgrass (evaluation grade 0-5): 320 g/ha
Outline: as §1

windgrass = assay: Test Example 5: herbicidal effect by foliage application, plastic box (Table 20, symbol L); assay type: in vivo, windgrass (Apera spica-venti); conditions: foliage application after 14-day growth, evaluated three weeks after application; for herbicidal effect on L: windgrass (evaluation grade 0-5): 320 g/ha
Outline: as §1

oval-leafed pondweed [5] = assay: Test Example 1: herbicidal activity, application before weed generation under submerged conditions (Table 16, symbol C); assay type: in vivo, oval-leafed pondweed (Monochoria vaginalis); conditions: amount of applied herbicide 320 g/ha
Outline: (§4)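 Submerged Wagner pots (alluvial soil, 4 cm water) sown with weed seeds and planted with 2.5-leaf rice seedlings; emulsifiable concentrate diluted in water applied to water surface on sowing day. Held in greenhouse at 25-30 °C; injury scored 0-5 by herbicidal rate after three weeks.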

persian speedwell = assay: Test Example 5: herbicidal effect by foliage application, plastic box (Table 20, symbol R); assay type: in vivo, Persian speedwell (Veronica persica); conditions: foliage application after 14-day growth, evaluated three weeks after application; for herbicidal effect on R: persian speedwell (evaluation grade 0-5): 320 g/ha
Outline: as §1

southern crabgrass = assay: Test Example 5: herbicidal effect by foliage application, plastic box (Table 20, symbol F); assay type: in vivo, southern crabgrass (Digitaria ciliaris); conditions: foliage application after 14-day growth, evaluated three weeks after application; for herbicidal effect on F: southern crabgrass (evaluation grade 0-5): 320 g/ha
Outline: as §1

rice flat sedge = assay: Test Example 3: herbicidal effect by foliage application, Wagner pot (Table 18, symbol E); assay type: in vivo, rice flat sedge (Cyperus iria); conditions: 320 g/ha
Outline: as §2

Chinese sprangletop = assay: Test Example 3: herbicidal effect by foliage application, Wagner pot (Table 18, symbol D); assay type: in vivo, chinese sprangletop (Leptochloa chinensis); conditions: 320 g/ha
Outline: as §2

velvetleaf = assay: Test Example 5: herbicidal effect by foliage application, plastic box (Table 20, symbol M); assay type: in vivo, velvetleaf (Abutilon theophrasti); conditions: foliage application after 14-day growth, evaluated three weeks after application; for herbicidal effect on M: velvetleaf (evaluation grade 0-5): 320 g/ha
Outline: as §1

Italian ryegrass = assay: Test Example 5: herbicidal effect by foliage application, plastic box (Table 20, symbol K); assay type: in vivo, Italian ryegrass (Lolium multiflorum); conditions: foliage application after 14-day growth, evaluated three weeks after application; for herbicidal effect on K: Italian ryegrass (evaluation grade 0-5): 320 g/ha
Outline: as §1

lambsquarters = assay: Test Example 5: herbicidal effect by foliage application, plastic box (Table 20, symbol O); assay type: in vivo, lambsquarters (Chenopodium album); conditions: foliage application after 14-day growth, evaluated three weeks after application; for herbicidal effect on O: lambsquarters (evaluation grade 0-5): 320 g/ha
Outline: as §1

late watergrass [6] = assay: Test Example 1: herbicidal activity, application before weed generation under submerged conditions (Table 16, symbol A); assay type: in vivo, late watergrass (Echinochloa oryzicola); conditions: amount of applied herbicide 320 g/ha
Outline: as §4

Japanese bulrush [7] = assay: Test Example 1: herbicidal activity, application before weed generation under submerged conditions (Table 16, symbol B); assay type: in vivo, Japanese bulrush (Schoenoplectus juncoides); conditions: amount of applied herbicide 320 g/ha
Outline: as §4

wild oat = assay: Test Example 5: herbicidal effect by foliage application, plastic box (Table 20, symbol I); assay type: in vivo, wild oat (Avena fatua); conditions: foliage application after 14-day growth, evaluated three weeks after application; for herbicidal effect on I: wild oat (evaluation grade 0-5): 320 g/ha
Outline: as §1

green foxtail = assay: Test Example 5: herbicidal effect by foliage application, plastic box (Table 20, symbol G); assay type: in vivo, green foxtail (Setaria viridis); conditions: foliage application after 14-day growth, evaluated three weeks after application; for herbicidal effect on G: green foxtail (evaluation grade 0-5): 320 g/ha
Outline: as §1

oval-leafed pondweed [8] = assay: Test Example 2: herbicidal activity, application during weed generation under submerged conditions (Table 17, symbol C); assay type: in vivo, oval-leafed pondweed (Monochoria vaginalis); conditions: AAH 320 g/ha; application during weed generation, submerged conditions
Outline: as §3

redroot pigweed = assay: Test Example 5: herbicidal effect by foliage application, plastic box (Table 20, symbol N); assay type: in vivo, redroot pigweed (Amaranthus retroflexus); conditions: foliage application after 14-day growth, evaluated three weeks after application; for herbicidal effect on N: redroot pigweed (evaluation grade 0-5): 320 g/ha
Outline: as §1

chickweed = assay: Test Example 5: herbicidal effect by foliage application, plastic box (Table 20, symbol P); assay type: in vivo, common chickweed (Stellaria media); conditions: foliage application after 14-day growth, evaluated three weeks after application; for herbicidal effect on P: chickweed (evaluation grade 0-5): 320 g/ha
Outline: as §1

[9] = amount of applied herbicide 320 g/ha

Row | SMILES | herbicidal effect on H: barnyard grass (evaluation grade 0-5) (barnyard grass [1]) | herbicidal effect on barnyard grass (H) (barnyard grass [2]) | herbicidal effect rating, B: Japanese bulrush (Japanese bulrush [3]) | herbicidal effect rating, A: late watergrass (late watergrass [4]) | herbicidal effect on J: blackgrass (evaluation grade 0-5) (blackgrass) | herbicidal effect on L: windgrass (evaluation grade 0-5) (windgrass) | Herbicidal effect, C: oval-leafed pondweed (oval-leafed pondweed [5]) | herbicidal effect on R: persian speedwell (evaluation grade 0-5) (persian speedwell) | herbicidal effect on F: southern crabgrass (evaluation grade 0-5) (southern crabgrass) | herbicidal effect on rice flat sedge (E) (rice flat sedge) | herbicidal effect on Chinese sprangletop (D) (Chinese sprangletop) | herbicidal effect on M: velvetleaf (evaluation grade 0-5) (velvetleaf) | herbicidal effect on K: Italian ryegrass (evaluation grade 0-5) (Italian ryegrass) | herbicidal effect on O: lambsquarters (evaluation grade 0-5) (lambsquarters) | Herbicidal effect, A: late watergrass (late watergrass [6]) | Herbicidal effect, B: Japanese bulrush (Japanese bulrush [7]) | herbicidal effect on I: wild oat (evaluation grade 0-5) (wild oat) | herbicidal effect on G: green foxtail (evaluation grade 0-5) (green foxtail) | herbicidal effect rating, C: oval-leafed pondweed (oval-leafed pondweed [8]) | herbicidal effect on N: redroot pigweed (evaluation grade 0-5) (redroot pigweed) | also measured
1 | CCCC(=O)Oc1c(C)nn(C)c(=O)c1-c1c(-c2ccc(C)cc2)sc2c(Cl)cccc12 [4-020] | 0 (Herbicidal rate of 5% or less (almost no effect)) | 4 (Herbicidal rate of 70% or more and less than 90%) | 3 (Herbicidal rate of 40% or more and less than 70%) | 0 (Herbicidal rate of 5% or less (almost no effect)) | 0 (Herbicidal rate of 5% or less (almost no effect)) | 5 (Herbicidal rate of 90% or more (almost completely withered)) | 0 (Herbicidal rate of 5% or less (almost no effect)) | 5 (Herbicidal rate of 90% or more (almost completely withered)) | 0 (Herbicidal rate of 5% or less (almost no effect)) | 5 (Herbicidal rate of 90% or more (almost completely withered)) | 5 (Herbicidal rate of 90% or more (almost completely withered)) | 5 (Herbicidal rate of 90% or more (almost completely withered)) | 4 (Herbicidal rate of 70% or more and less than 90%) | 2 (Herbicidal rate of 20% or more and less than 40%) | 4 (Herbicidal rate of 70% or more and less than 90%) | 3 (Herbicidal rate of 40% or more and less than 70%) | 3 (Herbicidal rate of 40% or more and less than 70%) | 0 (Herbicidal rate of 5% or less (almost no effect)) | 0 (Herbicidal rate of 5% or less (almost no effect)) | 5 (Herbicidal rate of 90% or more (almost completely withered)) | herbicidal effect on P: chickweed (evaluation grade 0-5) (chickweed): 5 (Herbicidal rate of 90% or more (almost completely withered))
2 | CCCC(=O)Oc1c(C)nn(C)c(=O)c1-c1c(-c2ccc(Cl)cc2)sc2c(F)cccc12 [4-041] | 4 (Herbicidal rate of 70% or more and less than 90%) | 5 (Herbicidal rate of 90% or more (almost completely withered)) | 3 (Herbicidal rate of 40% or more and less than 70%) | 0 (Herbicidal rate of 5% or less (almost no effect)) | 1 (Herbicidal rate of 5% or more and less than 20%) | 4 (Herbicidal rate of 70% or more and less than 90%) | 0 (Herbicidal rate of 5% or less (almost no effect)) | 5 (Herbicidal rate of 90% or more (almost completely withered)) | 0 (Herbicidal rate of 5% or less (almost no effect)) | 5 (Herbicidal rate of 90% or more (almost completely withered)) | 4 (Herbicidal rate of 70% or more and less than 90%) | 5 (Herbicidal rate of 90% or more (almost completely withered)) | 3 (Herbicidal rate of 40% or more and less than 70%) | 3 (Herbicidal rate of 40% or more and less than 70%) | 3 (Herbicidal rate of 40% or more and less than 70%) | 0 (Herbicidal rate of 5% or less (almost no effect)) | 3 (Herbicidal rate of 40% or more and less than 70%) | 3 (Herbicidal rate of 40% or more and less than 70%) | 0 (Herbicidal rate of 5% or less (almost no effect)) | 5 (Herbicidal rate of 90% or more (almost completely withered)) | herbicidal effect on P: chickweed (evaluation grade 0-5) (chickweed): 5 (Herbicidal rate of 90% or more (almost completely withered))
3 | Cc1nn(C)c(=O)c(-c2c(-c3ccc(OC4CCCCO4)cc3)sc3cc(F)c(F)cc23)c1O (stereo not drawn) [5-024] |  | 4 (Herbicidal rate of 70% or more and less than 90%) | 2 (Herbicidal rate of 20% or more and less than 40%) | 0 (Herbicidal rate of 5% or less (almost no effect)) |  |  | 5 (Herbicidal rate of 90% or more (almost completely withered)) |  |  | 0 (Herbicidal rate of 5% or less (almost no effect)) | 3 (Herbicidal rate of 40% or more and less than 70%) |  |  |  | 3 (Herbicidal rate of 40% or more and less than 70%) | 0 (Herbicidal rate of 5% or less (almost no effect)) |  |  | 0 (Herbicidal rate of 5% or less (almost no effect)) |  | Herbicidal effect by foliage application, H: barnyard grass (barnyard grass [1]; [9]): 3 (Herbicidal rate of 40% or more and less than 70%); Herbicidal effect by foliage application, J: blackgrass (blackgrass; [9]): 1 (Herbicidal rate of 5% or more and less than 20%); Herbicidal effect by foliage application, L: windgrass (windgrass; [9]): 2 (Herbicidal rate of 20% or more and less than 40%); Herbicidal effect by foliage application, R: persian speedwell (persian speedwell; [9]): 5 (Herbicidal rate of 90% or more (almost completely withered)); Herbicidal effect by foliage application, F: southern crabgrass (southern crabgrass; [9]): 4 (Herbicidal rate of 70% or more and less than 90%); Herbicidal effect by foliage application, M: velvetleaf (velvetleaf; [9]): 3 (Herbicidal rate of 40% or more and less than 70%); Herbicidal effect by foliage application, K: Italian ryegrass (Italian ryegrass; [9]): 0 (Herbicidal rate of 5% or less (almost no effect)); Herbicidal effect by foliage application, O: lambsquarters (lambsquarters; [9]): 5 (Herbicidal rate of 90% or more (almost completely withered)); Herbicidal effect by foliage application, I: wild oat (wild oat; [9]): 0 (Herbicidal rate of 5% or less (almost no effect)); Herbicidal effect by foliage application, G: green foxtail (green foxtail; [9]): 3 (Herbicidal rate of 40% or more and less than 70%); Herbicidal effect by foliage application, N: redroot pigweed (redroot pigweed; [9]): 5 (Herbicidal rate of 90% or more (almost completely withered)); Herbicidal effect by foliage application, P: chickweed (chickweed; [9]): 5 (Herbicidal rate of 90% or more (almost completely withered))
